Data on ten molecules can be found in ChEMBL document CHEMBL1201862, “PubChem BioAssay data set” (2004).

Test systems include SW-620; UACC-62; KM12; COLO 205; MCF7; RPMI-8226; SN12C; SK-MEL-28; HCT-15; MDA-MB-231; DU-145; SNB-75; MDA-MB-435; SF-539; HOP-62; TK-10; NCI-H460; NCI-H522; CAKI-1; HL-60.
What all share (assay): DTP human tumour cell line panel, 48 h

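Protocol summary: plate cells (96-well), add compound at 5 concentrations, incubate 48 h, interpolate endpoints linearly. At the GI50, growth is halved.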 Activity calls are given as the source filed them. Rule as the data show it: active = GI50 up to about 1.1 µM and inactive = higher.

Take `Cc1ccc(N2C(=O)C(=O)N(/N=C3\C(=O)Nc4ccccc43)C2=S)cc1`: the GI50 in the assay on SW-620 is 44.2 µM (inactive); with UACC-62, 92.9 µM (inactive); with KM12, 65.8 µM (inactive); with COLO 205 it was 42 µM (inactive); in the assay with MCF7, 43.2 µM (inactive); with RPMI-8226, 40.6 µM (inactive). Moreover, the GI50 was > 100 µM (inactive) with SN12C; > 100 µM (inactive) in the assay with SK-MEL-28; 39.8 µM in the assay with HCT-15; > 100 µM (inactive) in the assay on MDA-MB-231; > 100 µM (inactive) with DU-145; > 100 µM (inactive) in the assay with SNB-75. In addition, the GI50 with MDA-MB-435 is 36.6 µM (inactive); with SF-539 it was > 100 µM (inactive); with HOP-62, > 100 µM (inactive); with TK-10, > 100 µM (inactive); in the assay with NCI-H460, 31.5 µM (inactive); in the assay on NCI-H522, 63.2 µM (inactive). The GI50 was 92.5 µM (inactive) in the assay on CAKI-1 and 0.0998 µM (active) with HL-60.

With `O=[N+]([O-])c1cc2c(c([N+](=O)[O-])c1)NCc1ccccc1O2`, the GI50 in the assay on SW-620, with UACC-62, with KM12, with COLO 205, in the assay on MCF7 and in the assay on RPMI-8226 was > 100 µM (inactive) throughout. Further, the GI50 in the assay with SN12C was > 100 µM (inactive); in the assay on SK-MEL-28, > 100 µM (inactive); in the assay with HCT-15, more than 100 µM; in the assay with MDA-MB-231, > 100 µM (inactive); with DU-145, > 100 µM (inactive); in the assay on SNB-75, 12.9 µM (inactive). The GI50 in the assay on MDA-MB-435 is > 100 µM (inactive); with SF-539 it was 69.3 µM (inactive); in the assay with HOP-62, 30.8 µM (inactive); in the assay with TK-10, > 100 µM (inactive); in the assay with NCI-H460, > 100 µM (inactive); with NCI-H522, > 100 µM (inactive). Besides, the GI50 was 14.9 µM (inactive) in the assay on CAKI-1 and > 100 µM (inactive) in the assay with HL-60.

`Cn1c(=O)c2c(nc3n(CCCCl)c(=O)ccn23)n(C)c1=O`: the GI50 with SW-620, in the assay on UACC-62, in the assay with KM12, with COLO 205, in the assay on MCF7 and in the assay on RPMI-8226 was > 100 µM (inactive) each time. Besides, the GI50 with SN12C was > 100 µM (inactive); with SK-MEL-28, > 100 µM (inactive); in the assay on HCT-15, more than 100 µM; in the assay with MDA-MB-231 it was > 100 µM (inactive); in the assay on DU-145 it was > 100 µM (inactive); in the assay on SNB-75, > 100 µM (inactive). In addition, the GI50 in the assay with MDA-MB-435, in the assay on SF-539, in the assay with HOP-62, in the assay with TK-10, in the assay with NCI-H460 and in the assay on NCI-H522 was > 100 µM (inactive) throughout. Besides, the GI50 in the assay on CAKI-1 and in the assay with HL-60 was > 100 µM (inactive) each time.

As for `N#Cc1cc2c(cc1Cl)Sc1nnc(Nc3ccccc3)n1S2(=O)=O`, the GI50 in the assay on SW-620 is 1.52 µM (inactive); in the assay on UACC-62 it was 1.83 µM (inactive); in the assay on KM12, 2.06 µM (inactive); in the assay on COLO 205, 2.18 µM (inactive); in the assay on MCF7, 8.39 µM (inactive); in the assay with RPMI-8226, 0.692 µM (active). In addition, the GI50 is 1.71 µM (inactive) in the assay on SN12C; 2.26 µM (inactive) with SK-MEL-28; 2.08 µM with HCT-15; 1.91 µM (inactive) in the assay on MDA-MB-231; 2.01 µM (inactive) in the assay with DU-145; 3.4 µM (inactive) in the assay with SNB-75. Moreover, the GI50 was 2.08 µM (inactive) in the assay with MDA-MB-435; 2.07 µM (inactive) in the assay with SF-539; 1.57 µM (inactive) in the assay on HOP-62; 4.22 µM (inactive) with TK-10; 2.71 µM (inactive) in the assay on NCI-H460; 1.89 µM (inactive) with NCI-H522. Moreover, the GI50 was 1.72 µM (inactive) in the assay on CAKI-1 and 3.05 µM (inactive) with HL-60.

As to `COc1c(C)c(C/C=C(\C)CCCCO[Si](c2ccccc2)(c2ccccc2)C(C)(C)C)c(OC)c(OC)c1OC`, the GI50 in the assay on SW-620 is 45.6 µM (inactive); in the assay with UACC-62, > 46.5 µM (inactive); in the assay with KM12, 14.8 µM (inactive); in the assay on COLO 205 it was 20.6 µM (inactive); with MCF7, > 46.5 µM (inactive); in the assay on RPMI-8226, 39.9 µM (inactive). Besides, the GI50 in the assay with SN12C was 27.7 µM (inactive); in the assay on SK-MEL-28, > 100 µM (inactive); with HCT-15, more than 46.5 µM; in the assay on MDA-MB-231 it was > 100 µM (inactive); in the assay on DU-145, 27.9 µM (inactive); with SNB-75, > 46.3 µM (inactive). The GI50 with MDA-MB-435 is > 46.5 µM (inactive); with SF-539, > 46.5 µM (inactive); in the assay on HOP-62, 25.1 µM (inactive); in the assay on TK-10 it was > 31.6 µM (inactive); in the assay with NCI-H460 it was 14.6 µM (inactive); in the assay on NCI-H522, 50.5 µM (inactive). Moreover, the figures for the GI50 in the assay with CAKI-1 and with HL-60 were 1.84 µM (inactive) and 47.3 µM (inactive), respectively.

Turning to `OCCOc1ccccc2cccc1-2`, the GI50 in the assay with SW-620 is > 100 µM (inactive); in the assay with UACC-62, > 100 µM (inactive); in the assay on KM12 it was > 100 µM (inactive); in the assay with COLO 205 it was > 100 µM (inactive); in the assay on MCF7 it was > 100 µM (inactive); in the assay on RPMI-8226, 61.8 µM (inactive). In addition, the GI50 in the assay on SN12C was > 100 µM (inactive); in the assay on SK-MEL-28, > 100 µM (inactive); with HCT-15, more than 100 µM; in the assay on MDA-MB-231, > 100 µM (inactive); in the assay on DU-145, > 100 µM (inactive); in the assay on SNB-75, > 100 µM (inactive). For the same molecule, the GI50 in the assay on MDA-MB-435 was > 100 µM (inactive); with SF-539, > 100 µM (inactive); in the assay with HOP-62 it was > 100 µM (inactive); in the assay on TK-10, > 100 µM (inactive); in the assay on NCI-H460 it was 73.6 µM (inactive); with NCI-H522 it was > 100 µM (inactive). In addition, the GI50 with CAKI-1 and with HL-60 was > 100 µM (inactive) each time.

Turning to `O=C1Nc2ccc([N+](=O)[O-])cc2/C1=N/NC(=S)Nc1ccc([N+](=O)[O-])cc1`, the GI50 was 39.2 µM (inactive) in the assay with SW-620; 21.1 µM (inactive) with UACC-62; 18.6 µM (inactive) with KM12; 36 µM (inactive) with COLO 205; 25.4 µM (inactive) with MCF7; 34.9 µM (inactive) in the assay with RPMI-8226. In addition, the GI50 in the assay on SN12C is 32.3 µM (inactive); with SK-MEL-28, 26.5 µM (inactive); in the assay with HCT-15 it was 19 µM; in the assay on MDA-MB-231, 24.7 µM (inactive); in the assay with DU-145, 21.5 µM (inactive); with SNB-75, 21.8 µM (inactive). Also, the GI50 in the assay on MDA-MB-435 was 18.4 µM (inactive); in the assay on SF-539 it was 29.4 µM (inactive); in the assay on HOP-62, 22.6 µM (inactive); in the assay with TK-10, 24.7 µM (inactive); with NCI-H460 it was 19.7 µM (inactive); with NCI-H522, 30.9 µM (inactive). For the same molecule, the results for the GI50 with CAKI-1 and in the assay on HL-60 were 21.6 µM (inactive) and 26.7 µM (inactive), respectively.

`CC(C)OP(=O)(OC(C)C)C(Nc1cccc(C(F)(F)F)c1)c1ccccc1` (stereo not given): the GI50 in the assay with SW-620 was > 10 µM (inactive); in the assay with UACC-62, 69.8 µM (inactive); with KM12, 40.6 µM (inactive); in the assay on COLO 205 it was 25.5 µM (inactive); in the assay on MCF7, 46.9 µM (inactive); in the assay with RPMI-8226 it was 12.7 µM (inactive). Besides, the GI50 in the assay with SN12C was 37.7 µM (inactive); with SK-MEL-28 it was 93.5 µM (inactive); with HCT-15, 55.5 µM; with MDA-MB-231, 45.9 µM (inactive); with DU-145, 77.6 µM (inactive); in the assay with SNB-75, > 100 µM (inactive). Moreover, the GI50 in the assay on MDA-MB-435 was 41.6 µM (inactive); with SF-539, > 100 µM (inactive); in the assay on HOP-62 it was 69.7 µM (inactive); in the assay with TK-10, > 100 µM (inactive); in the assay on NCI-H460, 24 µM (inactive); in the assay on NCI-H522 it was 20.2 µM (inactive). For the same molecule, the values for the GI50 with CAKI-1 and with HL-60 were 18.7 µM (inactive) and 14.7 µM (inactive), respectively.

In the case of `CN1c2ccccc2C2c3c(O)ccc(O)c3C=C([N+](=O)[O-])C21` (stereo not given), the GI50 is 0.406 µM (active) with SW-620; 0.957 µM (active) with UACC-62; 0.39 µM (active) in the assay with KM12; 0.653 µM (active) with COLO 205; 0.155 µM (active) in the assay on MCF7; 1.11 µM (active) in the assay on RPMI-8226. In addition, the GI50 in the assay with SN12C is 0.312 µM (active); in the assay on SK-MEL-28, 2.03 µM (inactive); with HCT-15, 1.08 µM; in the assay with MDA-MB-231, 0.656 µM (active); with DU-145 it was 1.44 µM (inactive); in the assay on SNB-75 it was 4.7 µM (inactive). The GI50 in the assay with MDA-MB-435 was 0.199 µM (active); in the assay on SF-539 it was 1.44 µM (inactive); in the assay with HOP-62, 2.11 µM (inactive); with TK-10 it was 11.2 µM (inactive); in the assay on NCI-H460, 1.9 µM (inactive); with NCI-H522 it was 0.0621 µM (active). For the same molecule, the GI50 with CAKI-1 was 2.13 µM (inactive); in the assay on HL-60, 0.684 µM (active).

As for `O=C1OC(c2ccccc2)=NC1c1ccccc1` (stereo not given), the GI50 with SW-620, in the assay with UACC-62, with KM12, in the assay with COLO 205, with MCF7 and in the assay with RPMI-8226 was > 100 µM (inactive) throughout. Besides, the GI50 in the assay with SN12C is > 100 µM (inactive); in the assay with SK-MEL-28, > 100 µM (inactive); in the assay on HCT-15, more than 100 µM; in the assay on MDA-MB-231 it was > 100 µM (inactive); in the assay on DU-145 it was > 100 µM (inactive); in the assay with SNB-75, > 100 µM (inactive). The GI50 in the assay on MDA-MB-435, with SF-539, with HOP-62, with TK-10, with NCI-H460 and with NCI-H522 was > 100 µM (inactive) throughout. Besides, the GI50 in the assay on CAKI-1 and in the assay on HL-60 was > 100 µM (inactive) throughout.
